Results from patent US7368469B2, “Use of inhibitors of the renin-angiotensin system in the prevention of cardiovascular events” (Sanofi-Aventis Deutschland GmbH, priority 1999, dated 2008).
Where two headings read alike, the source gives them in different places.

Assays:
[1] = system: high risk patients without known low EF or HF; type: in vivo; conditions: subgroup with documented preserved ventricular function (n=4676), vs placebo
[2] = system: high risk patients without known low EF or HF; type: in vivo; conditions: for Blood pressure: active group
Experimental: A large-scale clinical trial (HOPE (Heart Outcomes Prevention Evaluation) Study) was designed to examine the effect of the ACE inhibitor ramipril versus placebo in reducing cardiovascular events. 9,297 high risk patients (≧55 yrs with evidence of vascular disease or diabetes plus one additional risk factor), without known low EF or HF were randomized to receive Ramipril (2.5 mg to 10 mg/day) or matching placebo for a mean duration of 5 years. The primary outcome was the first occurrence of the composite of cardiovascular (CV) mortality, myocardial infarction or stroke. The study was stopped at 4.5 years by the independent Data and Safety Monitoring Board because of convincing evidence of benefit. 646 (13.9%) patients allocated to Ramipril and 816 (17.5%) placebo patients experienced a primary outcome (Relative risk, RR of 0.78, 95% confidence interval of 0.70-0.86; Portable=0.000002). There were clear and significant reductions separately in CV deaths (6.0% v. 8.0%, RR of 0.75, Portable=0.0002), myocardial infarction (9.8% v.12.0%, RR of 0.68, Portable=0.0002). […] Other outcomes included worsening or new angina, or new heart failure (irrespective of hospitalization).
In a double blind, 2×2 factorial, randomized trial, HOPE evaluated Ramipril or vitamin E in 9541 patients. A substudy of 244 patients tested a low dose (2.5 mg/day) versus the full dose (10 mg/day) of Ramipril. The primary outcome in these 244 patients is reported as a footnote to Table 3. Therefore the main results report is on 9,297 patients randomized to receive 10 mg Ramipril or equivalent placebo. The effects of vitamin E are reported separately. The design of HOPE has been published (Can J Cardiology 1996; 12(2); 127-137), a brief summary follows below:
Men and women were eligible if aged 55 years and older, with prior coronary artery disease, stroke, peripheral vascular disease or diabetes plus at least one other risk factor (current or previous hypertension, elevated total cholesterol, low HDL cholesterol, current cigarette smoking, known microalbuminuria or previous vascular disease). Patents who had HF, were known to have low EF, those on ACE-I or vitamin E, those with uncontrolled hypertension or overt nephropathy, or recent MI (<4 weeks) were excluded. In this large, simple trial it was impractical to measure left ventricular function in all patients (none of whom had heart failure or were considered to need an ACE-I). Instead, echocardiograms were done in all patients (n=496) from 3 centres who entered a substudy. […] Additionally, an audit of charts identified that in 5285 patients a prerandomization and evaluation of ventricular function had been conducted. Only 409 (7.7%) were documented to have low EF and none had heart failure prior to randomization. A separate analysis of those documented to have a preserved EF (n=4876) is provided. After obtaining written informed consent, all eligible patients entered a run in phase where they received 2.5 mg Ramipril OD for 7-10 days followed by matching placebo for 10-14 days. Patients who were non compliant (<80% of pills taken), who experienced side effects, developed abnormal creatinine or potassium levels or those who withdrew consent were excluded. 9,541 were included; 9,297 were randomized to receive Ramipril at 10 mg/day or matching placebo, with 244 randomized to low dose (2.5 mg/day) of Ramipril.
At randomization, patients were allocated to receive Ramipril at 2.5 mg OD for one week, then 5 mg OD for another 3 weeks, followed by 10 mg once daily, or matching placebo. Additionally, all patients were randomized to vitamin E 400 IU/day or matching placebo. Follow-up visits occurred at 1 month, 6 months and then at 6 month intervals. At each visit, data were collected on events, compliance, and side effects leading to alteration of study medications. All primary and secondary events were documented on additional forms and were centrally adjudicated using standardized definitions. […]

[3] = system: patients randomized to captopril compared to a diuretic or beta blocker; conditions: cited from earlier work
[4] = Ramipril 10 mg/day group, n=4645
[5] = Ramipril group, diabetic nephropathy, renal dialysis, laser therapy
[6] = Ramipril group, irrespective of hospitalization
[7] = both, human, in vivo, 4.5 years

## CCOC(=O)[C@H](CCc1ccccc1)N[C@@H](C)C(=O)N1[C@H](C(=O)O)C[C@@H]2CCC[C@@H]21 [Ramipril, ramipril]
[1]
  Primary outcome RR, documented EF≧0.40: 0.73
[2]; 2nd year
  Relative risk reduction (conditional RRR): 22%
[2]; 3rd year
  Relative risk reduction (conditional RRR): 26%
[2]; 4th year
  Relative risk reduction (conditional RRR): 27%
[2]; DSMB interim look, Mar. 22, 1999, 95% CI 12% to 28%
  Relative risk reduction in the primary outcome at interim analysis: 20%
[2]; [4]
  Primary outcome CV death, MI, stroke: % of patients: 13.9%
  Primary outcome CV death, MI, stroke: number of patients: 646
[2]; Ramipril group
  New diagnosis of diabetes: % of patients: 3.8%
  New diagnosis of diabetes: number of patients: 108
  Stopping blinded medication for hypotension/dizziness: %: 1.8%
  Stopping blinded medication for hypotension/dizziness: number: 82
[2]; Ramipril group, at 2 years
  Primary outcome: number of patients at 2 years: 323
[2]; Ramipril group, n=4645
  Cardiac arrests: % of patients: 0.8%
  Cardiac arrests: number of patients: 37
  Heart failure hospitalizations: % of patients: 3.2%
  Heart failure hospitalizations: number of patients: 150
  MI: % of patients: 9.8%
  MI: number of patients: 453
  Revascularization: % of patients: 16.0%
  Revascularization: number of patients: 742
  Strokes: % of patients: 3.3%
  Strokes: number of patients: 155
  Total mortality: % of patients: 10.3%
  Total mortality: number of patients: 476
  UA with ECG changes: % of patients: 3.4%
  UA with ECG changes: number of patients: 179
  Unstable angina hospitalization: % of patients: 12.1%
  Unstable angina hospitalization: number of patients: 564
[2]; Ramipril group, within 1 year
  Primary outcome: number of patients within 1 year after randomization: 167
[2]; Ramipril group, % of alive
  Permanently discontinuing blinded medication, % of alive: 29.1%
  Stopping blinded medication at any time, % of alive: 33.0%
[2]; [5]
  Diabetic complications: % of patients: 6.4%
  Diabetic complications: number of patients: 298
[2]; [6]
  All heart failure (new heart failure): number of patients: 343
  All heart failure: % of patients: 7.4%
  Worsening angina: % of patients: 23.8%
  Worsening angina: number of patients: 1104
[2]; Ramipril vs placebo
  Difference in BP reduction, diastolic: −2 mmHg
  Difference in BP reduction, systolic: −3 mmHg
  Impact on hospitalizations for unstable angina: no impact
[2]; Ramipril vs placebo, nonsignificant
  Increase in patients stopping medication for dizziness/hypotension: 0.3%
[2]; at 1 month, 139/79 at entry
  Blood pressure: 133/76
[2]; at 2 years
  Blood pressure: 135/76
[2]; at the end of the study
  Blood pressure: 136/76
[2]; [7]
  Excess of patients stopping for cough: 5%
  No. permanently discontinuing blinded medication: 1207
  No. stopping blinded medication at any time: 1370
  Stopping blinded medication for angioedema: %: 0.3%
  Stopping blinded medication for angioedema: number: 16
  Stopping blinded medication for cough: %: 7.2%
  Stopping blinded medication for cough: number: 335
[2]; diabetic patients with no clinical manifestations of CVD (1100)
  Composite outcome of CV death, MI, stroke, heart failure, revascularization and diabetic complications: significantly reduced
[2]; first year of the trial
  Relative risk reduction: about 11%
[2]; fourth year
  Primary outcome relative risk conditioned on survival up to the prior year: 0.73
[2]; in the trial
  Tolerability: generally well tolerated
[2]; second year
  Primary outcome relative risk conditioned on survival up to the prior year: 0.78
[2]; subgroup Age 65+, 5128 patients
  Primary composite outcome relative risk (95% CI): 0.75 (0.66-0.85)
[2]; subgroup Age <65, 4169 patients
  Primary composite outcome relative risk (95% CI): 0.82 (0.70-0.98)
[2]; subgroup CAD+, 7475 patients
  Primary composite outcome relative risk (95% CI): 0.80 (0.71-0.89)
[2]; subgroup CAD−, 1822 patients
  Primary composite outcome relative risk (95% CI): 0.71 (0.54-0.93)
[2]; subgroup CVD+, 8160 patients, Ramipril vs placebo
  Primary composite outcome relative risk (95% CI): 078 (0.71-0.87)
[2]; subgroup CVD−, 1137 patients
  Primary composite outcome relative risk (95% CI): 0.81 (0.56-1.20)
[2]; subgroup Cerebro VD+, 1013 patients
  Primary composite outcome relative risk (95% CI): 0.73 (0.56-0.95)
[2]; subgroup Cerebro VD−, 8284 patients
  Primary composite outcome relative risk (95% CI): 0.79 (0.71-0.88)
[2]; subgroup Diabetes+, 3578 patients
  Primary composite outcome relative risk (95% CI): 0.76 (0.65-0.89)
[2]; subgroup Diabetes−, 5719 patients
  Primary composite outcome relative risk (95% CI): 0.79 (0.69-0.91)
[2]; subgroup Female, 2480 patients
  Primary composite outcome relative risk (95% CI): 0.76 (0.61-0.95)
[2]; subgroup Hypertension+, 4355 patients
  Primary composite outcome relative risk (95% CI): 0.75 (0.65-0.87)
[2]; subgroup Hypertension−, 4942 patients
  Primary composite outcome relative risk (95% CI): 0.81 (0.70-0.93)
[2]; subgroup MA+ (microalbuminuria), 1963 patients
  Primary composite outcome relative risk (95% CI): 0.71 (0.59-0.86)
[2]; subgroup MA−, 7334 patients
  Primary composite outcome relative risk (95% CI): 0.82 (0.72-0.92)
[2]; subgroup Male, 6817 patients
  Primary composite outcome relative risk (95% CI): 0.79 (0.70-0.89)
[2]; subgroup PVD+, 4046 patients
  Primary composite outcome relative risk (95% CI): 0.74 (0.64-0.86)
[2]; subgroup PVD−, 5251 patients
  Primary composite outcome relative risk (95% CI): 0.84 (0.72-0.98)
[2]; subgroup Prior MI+, 4892 patients
  Primary composite outcome relative risk (95% CI): 0.79 (0.69-0.90)
[2]; subgroup with documented EF≧0.40 (n=4676), Ramipril group
  Primary outcome, events/patients, documented EF≧0.40: 317/2339
[2]; third year
  Primary outcome relative risk conditioned on survival up to the prior year: 0.74
[2]; vs placebo, at 2 years
  Primary outcome RR at 2 years: 0.81
[2]; vs placebo, within 1 year
  Primary outcome RR within 1 year after randomization: 0.85

## C[C@H](CS)C(=O)N1CCC[C@H]1C(=O)O [captopril]
[3]
  Newly diagnosed diabetes: reduction in newly diagnosed diabetes
